Legend:
[1] = Percutaneous absorption of C^14 nitroglycerin, neat liquid application (urinary radioactivity); assay type: in vivo, rhesus monkey (Macaca mulata); settings: for Percent Dose Absorbed (Mean + SEM): neat liquid
Method: Studies to determine the topical availability of nitroglycerin were carried out in vivo with the rhesus monkey (Macaca mulata).
The animals were placed in metabolism chairs for the length of time of the dose application. Urine was collected while the animals were still in the metabolism chairs. After the dose was removed, the animals were moved to a metabolism cage for continued urine collection.
Nitroglycerin, labeled with carbon-14, was applied to the skin. The site of application can be any part of the body; however, the ventral forearm or upper part of the inner arm was used for convenience. The area of application is generally small, i.e., 2-10 cm^2; however, any area can be used. The final concentration is expressed as an amount per unit area of skin (i.e. 1.0 mg/1 cm^2).
In the case of liquid, cream or ointment formulations, the dose was spread over the exact skin area. In the case of the pads of the present invention, they were taped to the skin. In the case of liquids, cream or ointments, the treated area was covered with aluminum foil and tape. In all cases, the tape and foil and where applicable the nitroglycerin pads were removed after 24 hours and the site of application was wiped three times with gauze soaked with ethanol, then washed with soap and water.
Absorption is quantified on the basis of the percent of radioactivity excreted in urine for 3 days following application of a known amount of the labeled nitroglycerin to the skin. Daily urinary excretion values are collected for excretion of radioactivity by other routes and retention of radioactivity in the body by the administration of an intravenous dose of C^14 -labeled nitroglycerin according to the following formula: [formula]
In the case of C^14 -labeled nitroglycerin applied via the nitroglycerin pad of the present invention, the device can be removed from the skin and analyzed for residual radioactivity. The amount of radioactivity which has been removed from the device, by comparative assays with devices not applid to skin, is considered to have been released in vivo during the time of skin application. Analysis for radioactivity can be conducted using any commercially available liquid scintillation counter. To determine the amount of radioactivity in this study, 1.0 ml of radioactive urine was mixed with scintillation fluid (10 ml of PCS solubilizer, Amersham Corporation, Arlington Heights, Ill.). The urine mixed with scintillant is counted for radioactivity in a liquid scintillation counter and the amount of radioactivity determined.

[2] = Effect of added hydrophobic solvents on nitroglycerin transport and delivery; settings: miglyol oil 812 and isopropyl palmitate alone, or with mineral oil, added to the hydrophilic solvent system in the polymer matrix

## O=[N+]([O-])OCC(CO[N+](=O)[O-])O[N+](=O)[O-] [C^14 Nitroglycerin, nitroglycerin]
[1]; topical concentration 0.01 mg/cm^2, 24 hours
  Percent Dose Absorbed (Mean + SEM): 41.8 ± 3.2%
[1]; topical concentration 0.1 mg/cm^2, 24 hours
  Percent Dose Absorbed (Mean + SEM): 43.5 ± 3.3%
[1]; topical concentration 1.0 mg/cm^2, 24 hours
  Percent Dose Absorbed (Mean + SEM): 36.6 ± 3.7%
[1]; topical concentration 7.0 mg/cm^2, 24 hours
  Percent Dose Absorbed (Mean + SEM): 22.6 ± 4.2%
[1]; topical concentration 10.0 mg/cm^2, 24 hours
  Percent Dose Absorbed (Mean + SEM): 7.8 ± 0.7%
[1]; topical concentrations of 7 and 10 mg/cm^2
  absorption: decreased absorption
[1]; topical, neat nitroglycerin
  maximum optimum dosage for good bioavailability: 5 mg/cm^2
[2]
  drug delivery: increased
  drug transport: greatly enhanced

Reference: patent US4336243A, “Transdermal nitroglycerin pad” (G. D. Searle & Co., priority 1981, dated 1982)
